For test [1], the system named is 3hpdh, 3hibdhIV, and mmsadh. The test is described as follows: Inducer specificity of gene expression (FIGS. 4 and 5). It counts as cell-based, Pseudomonas denitrificans. Particulars: for inducer of expression of mmsadh and 3hibdhIV: FIG. 4; for amplification of the genes 3hpdh, 3hibdhIV and mmsadh by the compound: FIGS. 4 and 5.
For a further test, the system named is 3hpdh. The test is described as follows: RT-PCR relative mRNA level of 3-HP catabolic gene. The following applies: FIG. 5.

With `CC(C)[C@H](N)C(=O)O` [L-valine], in test [1], the “inducer of expression of mmsadh and 3hibdhIV” value is reported as “acts as an inducer”; the “amplification of the genes 3hpdh, 3hibdhIV and mmsadh by the compound” value (“amplification of the genes 3hpdh” below) is “induced”. The “inducer of expression of 3hpdH” value in the test with 3hpdh is “acts as an inducer”.
For `CC(O)C(C)O` (centres unmarked) [2,3-butandiol], the “amplification of the genes 3hpdh” value in test [1] is “not induced”.
Same read-out and setting: the same measure for `OCCCO` [1,3-propanediol]: “not induced”; for `CCC(=O)O` [propionic acid]: “not induced”.
On the same count and under the same terms, the same measure for `CC(=O)O` [acetic acid]: “not induced”.
Regarding `CC(CO)C(=O)O` (centres unmarked) [3HIB, 3-hydroxyisobutyrate], in test [1], the “inducer of expression of mmsadh and 3hibdhIV” value is reported as “acts as an inducer”; the “amplification of the genes 3hpdh” value is “amplified”. In the test with 3hpdh, the “inducer of expression of 3hpdH” value was “acts as an inducer”.
As to `CC(O)CC(=O)O` (centres unmarked) [3-HB, 3-hydroxybutyrate], in test [1], the “inducer of expression of mmsadh and 3hibdhIV” value is listed as “acts as an inducer”; the “amplification of the genes 3hpdh” value is reported as “amplified”. In the test with 3hpdh, the “inducer of expression of 3hpdH” value was “acts as an inducer”.
For `CC(O)C(=O)O` (centres unmarked) [lactic acid], the “amplification of the genes 3hpdh” value in test [1] was “not induced”.

Values taken from patent US10961539B2, “Promoter system inducing expression by 3-hydroxypropionic acid and method for biological production of 3-hydroxypropionic acid using same” (NOROO IC Co., Ltd., priority 2015, dated 2021).
